Measurements taken from patent US20250345446A1 (Draupnir Bio ApS, priority 2022, published 2025).

Molecular target: T1, soluble ectodomain of sortilin-6his (Homo sapiens, UniProt Q99523, V650M)
T1 construct: the soluble ectodomain of sortilin-6his is measured by microscale thermophoresis (MST)
Test: MST binding to soluble ectodomain of sortilin-6his
Details: Table 4; small molecule bifunctional compounds; MST; read-out: KD score, binding to sortilin (Kd)
Description: At this point the plate was sealed with adhesive strip and placed on an Eppendorf thermomixer to shake at 600 rpm for 3 min before spinning on a Fisherbrand plate-spinner for 15 seconds and further incubation 1 hrs at 19° C. MST was measured on a Monolith NT. Automated (Nanotemper) in standard-treated capillaries at 5% LED-power and high MST-power. Dose-response was extracted from the raw thermographs at 20 sec hot-time and the dissociation constant was estimated by sigmoidal curve fitting in MO. Affinity analysis program (Nanotemper). All experiments were run in duplicates.

T1 sequence (Q99523 with tags, fused parts or gaps V650M): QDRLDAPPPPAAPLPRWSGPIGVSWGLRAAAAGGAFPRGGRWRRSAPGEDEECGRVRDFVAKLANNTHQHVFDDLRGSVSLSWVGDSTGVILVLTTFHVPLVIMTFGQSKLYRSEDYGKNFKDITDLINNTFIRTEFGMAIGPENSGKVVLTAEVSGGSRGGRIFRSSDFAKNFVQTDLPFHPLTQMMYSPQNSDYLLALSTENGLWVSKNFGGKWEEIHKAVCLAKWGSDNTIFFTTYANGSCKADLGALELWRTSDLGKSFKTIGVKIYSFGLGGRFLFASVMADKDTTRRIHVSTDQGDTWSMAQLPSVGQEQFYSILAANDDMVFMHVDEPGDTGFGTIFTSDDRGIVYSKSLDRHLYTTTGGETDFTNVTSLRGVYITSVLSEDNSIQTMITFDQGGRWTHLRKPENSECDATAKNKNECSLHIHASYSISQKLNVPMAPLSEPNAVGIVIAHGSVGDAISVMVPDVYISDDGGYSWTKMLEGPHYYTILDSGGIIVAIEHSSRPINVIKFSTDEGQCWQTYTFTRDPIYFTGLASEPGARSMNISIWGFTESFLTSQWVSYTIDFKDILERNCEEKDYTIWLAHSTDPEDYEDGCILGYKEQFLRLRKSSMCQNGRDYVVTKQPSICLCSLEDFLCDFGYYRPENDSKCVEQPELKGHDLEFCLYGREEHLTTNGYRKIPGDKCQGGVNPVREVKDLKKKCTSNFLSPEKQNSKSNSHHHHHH

SMILES	Kd
C[C@@H]1CN(c2ncc(-c3ccc4c(n3)N(Cc3cccnc3C#N)C(C)(C)C4=O)cn2)CCN1C(=O)COCCOCCOCCNC(=O)c1cccc(Oc2ccc(C(=O)N[C@@H](CCC(C)(C)C)C(=O)O)cn2)c1 [BF056, (2S)-2-[[6-[3-[2-[2-[2-[2-[(2R)-4-[5-[1-[(2-cyano-3-pyridyl)methyl]-2,2-dimethyl-3-oxo-pyrrolo[2,3-b]pyridin-6-yl]pyrimidin-2-yl]-2-methyl-piperazin-1-yl]-2-oxo-ethoxy]ethoxy]ethoxy]ethylcarbamoyl]phenoxy]pyridine-3-carbonyl]amino]-5,5-dimethyl-hexanoic acid]	10 to 250 nM
C[C@@H]1CN(c2ncc(-c3ccc4c(n3)N(Cc3cccnc3C#N)C(C)(C)C4=O)cn2)CCN1C(=O)COCCNC(=O)c1cccc(Oc2ccc(C(=O)N[C@@H](CCC(C)(C)C)C(=O)O)cn2)c1 [BF058, (S)-2-(6-(3-((2-(2-((R)-4-(5-(1-((2-cyanopyridin-3-yl)methyl)-2,2-dimethyl-3-oxo-2,3-dihydro-1H-pyrrolo[2,3-b]pyridin-6-yl)pyrimidin-2-yl)-2-methylpiperazin-1-yl)-2-oxoethoxy)ethyl)carbamoyl)phenoxy)nicotinamido)-5,5-dimethyl hexanoic acid]	1 to 10 nM
CC(C)(C)CC[C@H](NC(=O)c1ccc(Oc2cccc(C(=O)NCCOCCNc3ncc(-c4ccc5c(n4)N(Cc4cccnc4C#N)C(C)(C)C5=O)cn3)c2)nc1)C(=O)O [BF060, (2S)-2-[[6-[3-[2-[2-[[5-[1-[(2-cyano-3-pyridyl)methyl]-2,2-dimethyl-3-oxo-pyrrolo[2,3-b]pyridin-6-yl]pyrimidin-2-yl]amino]ethoxy]ethylcarbamoyl]phenoxy]pyridine-3-carbonyl]amino]-5,5-dimethyl-hexanoic acid]	1 to 10 nM
C[C@@H]1CN(c2ncc(-c3ccc4c(n3)N(Cc3cccnc3C#N)C(C)(C)C4=O)cn2)CCN1C(=O)COCCNC(=O)COc1cccc(Oc2ccc(C(=O)N[C@@H](CCC(C)(C)C)C(=O)O)cn2)c1 [BF064, (S)-2-(6-(3-(2-((8-(2-((R)-4-(5-(1-((2-cyanopyridin-3-yl)methyl)-2,2-dimethyl-3-oxo-2,3-dihydro-1H-pyrrolo[2,3-b]pyridin-6-yl)pyrimidin-2-yl)-2-methylpiperazin-1-yl)-2-oxoethoxy)methyl)amino)-2-oxoethoxy)phenoxy)nicotinamido)-5,5-dimethylhexanoic acid]	1 to 10 nM

The remaining lines, values ahead:

Kd	SMILES
< 1 nM	CC(C)(C)CC[C@H](NC(=O)c1ccc(Oc2cccc(C(=O)NCCOCCOCCOCCOCCOCCOc3ncc(-c4ccc5c(n4)N(Cc4cccnc4C#N)C(C)(C)C5=O)cn3)c2)nc1)C(=O)O [BF059]
1 to 10 nM	CC(C)(C)CC[C@H](NC(=O)c1ccc(Oc2cccc(C(=O)NCCOCCOCCOCCOCCNc3ncc(-c4ccc5c(n4)N(Cc4cccnc4C#N)C(C)(C)C5=O)cn3)c2)nc1)C(=O)O [BF062, (2S)-2-[[6-[3-[2-[2-[2-[2-[2-[[5-[1-[(2-cyano-3-pyridyl)methyl]-2,2-dimethyl-3-oxo-pyrrolo[2,3-b]pyridin-6-yl]pyrimidin-2-yl]amino]ethoxy]ethoxy]ethoxy]ethoxy]ethylcarbamoyl]phenoxy]pyridine-3-carbonyl]amino]-5,5-dimethyl-hexanoic acid]
< 1 nM	CC(C)(C)CC[C@H](NC(=O)c1ccc(Oc2cccc(C(=O)NCCOCCOCCOCCOCCOCCNc3ncc(-c4ccc5c(n4)N(Cc4cccnc4C#N)C(C)(C)C5=O)cn3)c2)nc1)C(=O)O [BF067, (2S)-2-[[6-[3-[2-[2-[2-[2-[2-[2-[[5-[1-[(2-cyano-3-pyridyl)methyl]-2,2-dimethyl-3-oxo-pyrrolo[2,3-b]pyridin-6-yl]pyrimidin-2-yl]amino]ethoxy]ethoxy]ethoxy]ethoxy]ethoxy]ethylcarbamoyl]phenoxy]pyridine-3-carbonyl]amino]-5,5-dimethyl-hexanoic acid]
